The test relates to leukocyte migration (chemotaxis) stimulated by f-MLP. Kind of test: leukocyte chemotaxis assay: leukocyte migration stimulated by f-MLP. The conditions noted are these: concentration not given.

As for cyclosporin H, the “activity in studies involving leukocyte chemotaxis induced by f-MLP (result in words)” value is given as “functionally active”. In addition, where the note is “listed as purified cyclosporin H”, the “activity in studies involving leukocyte chemotaxis induced by f-MLP (result in words)” value was “active”.

The values are drawn from patent US20120253007A1 (The Government of the United States of America, as …, priority 2011, published 2012).
